Data: PubChem BioAssay (NCI)
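Cells were grown in 96-well plates and exposed to each compound for 48 hours at five concentrations; endpoints were interpolated linearly between bracketing concentrations, or set to the highest concentration if not reached. Abbreviation: GI50, concentration required for 50% inhibition of growth. TGI is the concentration that stops growth completely.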

Assays:
Assay in all cases: growth of human tumour cells (NCI), 48 h
[1] = system: HL-60(TB) leukemia
[2] = system: LOX IMVI melanoma
[3] = system: MCF7 breast
[4] = system: COLO 205 colon
[5] = system: MDA-MB-435
[6] = system: SNB-75 CNS
[7] = system: MOLT-4 leukemia
[8] = system: M14 melanoma
[9] = system: UACC-62 melanoma
[10] = system: SF-268 CNS
[11] = system: MALME-3M melanoma
[12] = system: NCI-H23 lung
[13] = system: HCT-15 colon
[14] = system: HS 578T breast
[15] = system: NCI-H522 lung
[16] = system: SK-MEL-28 melanoma
[17] = system: KM12 colon
[18] = system: 786-0 renal
[19] = system: U251 CNS
[20] = system: K-562 leukemia
[21] = system: NCI/ADR-RES ovarian
[22] = system: RPMI-8226 leukemia
[23] = system: SF-539 CNS
[24] = system: SK-MEL-5 melanoma
[25] = system: OVCAR-4 ovarian
[26] = system: PC-3 prostate
[27] = system: UACC-257 melanoma
[28] = system: A498 renal
[29] = system: NCI-H460 lung
[30] = system: NCI-H226 lung
[31] = system: TK-10 renal
[32] = system: RXF 393 renal
[33] = system: HOP-62 NSCLC
[34] = system: IGROV1 ovarian
[35] = system: HCC-2998 colon
[36] = system: SW-620 colon
[37] = system: HT29 colon
[38] = system: SNB-19 CNS
[39] = system: EKVX NSCLC
[40] = system: A549 NSCLC
[41] = system: HOP-92 NSCLC
[42] = system: SF-295 CNS
[43] = system: SK-MEL-2 melanoma
[44] = system: MDA-MB-231 breast
[45] = system: T-47D breast
[46] = system: ACHN renal
[47] = system: HCT-116 colon
[48] = system: OVCAR-8 ovarian
[49] = system: BT-549 breast
[50] = system: SK-OV-3 ovarian
[51] = system: OVCAR-5 ovarian
[52] = system: CCRF-CEM leukemia
[53] = system: SR leukemia
[54] = system: SN12C renal
[55] = system: OVCAR-3 ovarian
[56] = system: UO-31 renal

Question: How did the GI50 [1] turn out when CCC(C)[C@H]1C(=O)O[C@H](C(C)C)C(=O)N(C)[C@@H](C(C)C)C(=O)O[C@H](C(C)C)C(=O)N(C)[C@@H](C(C)C)C(=O)O[C@H](C(C)C)C(=O)N1C (some centres not stated) was run?
Answer: 2460 nM

Question: And the TGI [1]?
Answer: 5260 nM

Question: And the GI50 [2]?
Answer: 1940 nM

Question: And the TGI [2]?
Answer: > 10000 nM

Question: And the GI50 [3]?
Answer: 1260 nM

Question: And the TGI [3]?
Answer: > 10000 nM

Question: What about the GI50 [4] of the same compound?
Answer: 1230 nM

Question: And the TGI [4]?
Answer: 2940 nM

Question: And the GI50 [5]?
Answer: 2460 nM

Question: And the TGI [5]?
Answer: > 10000 nM

Question: And the GI50 [6]?
Answer: 2750 nM

Question: And the TGI [6]?
Answer: > 10000 nM

Question: And the GI50 [7]?
Answer: 3610 nM

Question: What about the TGI [7] of the same compound?
Answer: 9970 nM

Question: And the GI50 [8]?
Answer: 1660 nM

Question: What about the TGI [8] of the same compound?
Answer: > 10000 nM

Question: And the GI50 [9]?
Answer: 631 nM

Question: What about the TGI [9] of the same compound?
Answer: > 10000 nM

Question: And the GI50 [10]?
Answer: 3850 nM

Question: And the TGI [10]?
Answer: > 10000 nM

Question: What about the GI50 [11] of the same compound?
Answer: 577 nM

Question: What about the TGI [11] of the same compound?
Answer: > 10000 nM

Question: And the GI50 [12]?
Answer: 1680 nM

Question: What about the TGI [12] of the same compound?
Answer: > 10000 nM

Question: What about the GI50 [13] of the same compound?
Answer: 2700 nM

Question: And the TGI [13]?
Answer: > 10000 nM

Question: And the GI50 [14]?
Answer: 4640 nM

Question: And the TGI [14]?
Answer: > 10000 nM

Question: What about the GI50 [15] of the same compound?
Answer: 1610 nM

Question: And the TGI [15]?
Answer: > 10000 nM

Question: And the GI50 [16]?
Answer: 2720 nM

Question: What about the TGI [16] of the same compound?
Answer: > 10000 nM

Question: What about the GI50 [17] of the same compound?
Answer: 1570 nM

Question: What about the TGI [17] of the same compound?
Answer: > 10000 nM

Question: And the GI50 [18]?
Answer: 3090 nM

Question: And the TGI [18]?
Answer: > 10000 nM

Question: And the GI50 [19]?
Answer: 2190 nM

Question: What about the TGI [19] of the same compound?
Answer: > 10000 nM

Question: And the GI50 [20]?
Answer: 1460 nM

Question: And the TGI [20]?
Answer: > 10000 nM

Question: And the GI50 [21]?
Answer: 2120 nM

Question: What about the TGI [21] of the same compound?
Answer: > 10000 nM

Question: What about the GI50 [22] of the same compound?
Answer: 457 nM

Question: And the TGI [22]?
Answer: 4930 nM

Question: What about the GI50 [23] of the same compound?
Answer: 3650 nM

Question: What about the TGI [23] of the same compound?
Answer: > 10000 nM

Question: What about the GI50 [24] of the same compound?
Answer: 761 nM

Question: And the TGI [24]?
Answer: 2920 nM

Question: And the GI50 [25]?
Answer: 2010 nM

Question: And the TGI [25]?
Answer: > 10000 nM

Question: What about the GI50 [26] of the same compound?
Answer: 1560 nM

Question: What about the TGI [26] of the same compound?
Answer: > 10000 nM

Question: What about the GI50 [27] of the same compound?
Answer: 2080 nM

Question: And the TGI [27]?
Answer: > 10000 nM

Question: What about the GI50 [28] of the same compound?
Answer: 2610 nM

Question: What about the TGI [28] of the same compound?
Answer: 9710 nM

Question: And the GI50 [29]?
Answer: 1650 nM

Question: What about the TGI [29] of the same compound?
Answer: > 10000 nM

Question: And the GI50 [30]?
Answer: 3620 nM

Question: What about the TGI [30] of the same compound?
Answer: > 10000 nM

Question: What about the GI50 [31] of the same compound?
Answer: 2580 nM

Question: And the TGI [31]?
Answer: > 10000 nM

Question: And the GI50 [32]?
Answer: 2730 nM

Question: And the TGI [32]?
Answer: > 10000 nM

Question: And the GI50 [33]?
Answer: 3520 nM

Question: What about the TGI [33] of the same compound?
Answer: > 10000 nM

Question: And the GI50 [34]?
Answer: 3510 nM

Question: What about the TGI [34] of the same compound?
Answer: > 10000 nM

Question: What about the GI50 [35] of the same compound?
Answer: 2670 nM

Question: What about the TGI [35] of the same compound?
Answer: > 10000 nM

Question: And the GI50 [36]?
Answer: 3100 nM

Question: And the TGI [36]?
Answer: > 10000 nM

Question: What about the GI50 [37] of the same compound?
Answer: 2570 nM

Question: And the TGI [37]?
Answer: > 10000 nM

Question: And the GI50 [38]?
Answer: 2070 nM

Question: And the TGI [38]?
Answer: > 10000 nM

Question: What about the GI50 [39] of the same compound?
Answer: 2100 nM

Question: What about the TGI [39] of the same compound?
Answer: > 10000 nM

Question: And the GI50 [40]?
Answer: 3000 nM

Question: And the TGI [40]?
Answer: > 10000 nM

Question: What about the GI50 [41] of the same compound?
Answer: 1210 nM

Question: And the TGI [41]?
Answer: 6010 nM

Question: And the GI50 [42]?
Answer: 717 nM

Question: What about the TGI [42] of the same compound?
Answer: > 10000 nM

Question: What about the GI50 [43] of the same compound?
Answer: 3810 nM

Question: And the TGI [43]?
Answer: > 10000 nM

Question: What about the GI50 [44] of the same compound?
Answer: 2560 nM

Question: And the TGI [44]?
Answer: 8150 nM

Question: What about the GI50 [45] of the same compound?
Answer: 1080 nM

Question: What about the TGI [45] of the same compound?
Answer: 7810 nM

Question: And the GI50 [46]?
Answer: 788 nM

Question: And the TGI [46]?
Answer: > 10000 nM

Question: And the GI50 [47]?
Answer: 2080 nM

Question: What about the TGI [47] of the same compound?
Answer: > 10000 nM

Question: And the GI50 [48]?
Answer: 2110 nM

Question: And the TGI [48]?
Answer: > 10000 nM

Question: And the GI50 [49]?
Answer: 2500 nM

Question: And the TGI [49]?
Answer: > 10000 nM

Question: And the GI50 [50]?
Answer: 2470 nM

Question: What about the TGI [50] of the same compound?
Answer: 7590 nM

Question: What about the GI50 [51] of the same compound?
Answer: 3210 nM

Question: What about the TGI [51] of the same compound?
Answer: > 10000 nM

Question: What about the GI50 [52] of the same compound?
Answer: 3000 nM

Question: And the TGI [52]?
Answer: > 10000 nM

Question: What about the GI50 [53] of the same compound?
Answer: 3670 nM

Question: What about the TGI [53] of the same compound?
Answer: > 10000 nM

Question: And the GI50 [54]?
Answer: 1720 nM

Question: And the TGI [54]?
Answer: > 10000 nM

Question: And the GI50 [55]?
Answer: 704 nM

Question: And the TGI [55]?
Answer: > 10000 nM

Question: What about the GI50 [56] of the same compound?
Answer: 1030 nM

Question: And the TGI [56]?
Answer: > 10000 nM
